Read-outs that look alike come from different tables or passages of the source.

We go through eight compounds from US20260374766A1, “METHODS FOR TREATING CANCER” (Antares Therapeutics, Inc., priority 2022, published 2026).

For assay [1], the target named is T1, p53 Y220C mutant protein (amino acid residues 94-293) (Homo sapiens, UniProt P04637, Y220C).
T1 construct: p53 Y220C mutant protein (amino acid residues 94-293)
The assay is described as follows: Surface Plasmon Resonance (SPR) assay, Kd_kinetic. As to conditions: read-out: SPR P53 Y220C KD kinetic. The class given is binding. Put shortly:
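Binding measured by SPR on a Biacore 8K in running buffer of 50 mM Tris pH 7.5, 100 mM NaCl, 1 mM DTT, 0.01% Brij35, 0.05% Tween-20, 1% DMSO.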

The next assay relates to H1299 p53 Y220C. Nature of the assay: Cell Proliferation Assay (CellTiter-Glo, CTG), H1299 p53 Y220C (NClH1299-inducible p53 Y220C). The class given is cell-based. The note with it: Homo sapiens, NCI-H1299, 120 h, 5 days, CellTiter-Glo. Put shortly:
(§1)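 Cells seeded at 250-500 per well and exposed to compound for 5 days. Viability read by CellTiter-Glo luminescence after 10 min at room temperature; IC50 calculated. H1299 lines carry Tet-One inducible p53 mutant constructs introduced by lentiviral transduction.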

A further assay has as its target p53 Y220C (Homo sapiens, UniProt P04637, Y220C). Nature of the assay: Luciferase Reporter Assay (Luc), p53 response element, NClH1299 cells with inducible p53 Y220C. Type of assay: cell-based. The note with it: luciferase reporter, NClH1299 inducible p53 Y220C, 6 hour; for AC50: read-out: Luc P53 Y220C AC50. Put shortly:
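Cells were seeded at 5,000 per well and induced with 0.5 ug/mL doxycycline for 24 hours, then exposed to compound for 6 hours. One-Glo reagent was added, plates shaken 5 minutes at room temperature, and luminescence read immediately.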

Assay [2] addresses T1, p53 Y220C mutant protein (amino acid residues 94-293). Nature of the assay: Thermal Shift Assay (TSA), dTM. Type of assay: binding. The note with it: for ΔTm at 10 µM: 10 uM compound; for ΔTm at 100 µM: 100 uM compound, read-out: TSA P53 Y220C dTM (100 uM). Put shortly:
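Sypro Orange melt (30→50 °C, 0.03 °C/s) with TM taken from a Boltzmann two-state fit. Protein (residues 94-293) at 5 μM was pre-incubated 3 h at 20 °C with compound at 10 μM or 100 μM in pH 7.4 HEPES/NaCl buffer containing 0.01% Pluronic F-127 and 1% DMSO.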

The subject of the next assay is NUGC3 p53 Y220C. The assay is described as follows: Cell Proliferation Assay (CellTiter-Glo, CTG), NUGC3 p53 Y220C. Type of assay: cell-based. The note with it: Homo sapiens, NUGC-3, 120 h, 5 days, CellTiter-Glo. Put shortly:
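NClH1299 lines stably transduced with Tet-inducible p53 Y220C or R273H, plus NUGC3, were treated with compound for 5 days at 250-500 cells/well. IC50 derived from CellTiter-Glo luminescent signal after 10 min room-temperature incubation.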

For a further assay, the system named is H1299 p53 R273H. The assay is described as follows: Cell Proliferation Assay (CellTiter-Glo, CTG), H1299 p53 R273H (NClH1299-inducible p53 R273H). Type of assay: cell-based. As to conditions: Homo sapiens, NCI-H1299, 120 h, 5 days, CellTiter-Glo. The method, boiled down: as §1
Where [3] appears, read: NClH1299-inducible p53 Y220C cells.
[4] abbreviates: p53 Y220C, read-out: TSA P53 Y220C dTM.
The mark [5] stands for this setting: NClH1299-inducible p53 R273H cells.
Where [6] appears, read: 10 uM tool compound as positive control.
[7] abbreviates: thermal shift, read-out: TSA P53 Y220C dTM (10 uM).

`CNC(=O)c1cnc(OC)c(NCC#Cc2nn3c(N[C@@H]4CCNC[C@@H]4F)cccc3c2SC(F)(F)F)c1` [Example 270]: the Kd in assay [1] (SPR, p53 Y220C) was < 10 nM. Besides, the IC50 was < 750 nM with H1299 p53 Y220C (setting [3]), < 750 nM in the assay with NUGC3 p53 Y220C (NUGC3 cells) and < 5000 nM with H1299 p53 R273H (setting [5]). On p53 Y220C (AC50), the AC50 was < 750 nM. In addition, at p53 Y220C (Emax), the maximum response (Emax) lay within 80 to 90%. Also, in assay [2] (setting [4]), the ΔTm at 10 µM is ≥ 10 °C.

Regarding `CNC(=O)c1ccc(OC)c(NCC#Cc2cc3c(N[C@@H]4CCNC[C@@H]4F)cccn3c2SC(F)(F)F)c1` [Example 125, 3-{[3-(8-{[(3S,4R)-3-fluoropiperidin-4-yl]amino}-3-[(trifluoromethyl)sulfanyl]indolizin-2-yl)prop-2-yn-1-yl]amino}-4-methoxy-N-methylbenzamide], the dissociation constant (Kd) in assay [1] (SPR, kinetic KD, p53 Y220C) is < 10 nM. The IC50 in the assay on H1299 p53 Y220C (H1299 p53 Y220C) is < 750 nM; with NUGC3 p53 Y220C (NUGC3 p53 Y220C) it was < 750 nM; in the assay on H1299 p53 R273H (H1299 p53 R273H), 5000 to 8000 nM. Besides, at p53 Y220C (setting [6]), the Emax was > 90%. Moreover, the AC50 at p53 Y220C is < 750 nM. Also, the ΔTm at 10 µM in assay [2] (setting [7]) was ≥ 10 °C.

With `CCNC(=O)c1cnc(OC)c(NCC#Cc2nc3c(N[C@@H]4CCN(C)C[C@@H]4F)cccn3c2SC(F)(F)F)c1` [Example 293], the equilibrium dissociation constant (Kd) in assay [1] (SPR, p53 Y220C) is < 10 nM. Besides, the IC50 with H1299 p53 Y220C (setting [3]) is < 750 nM; in the assay with NUGC3 p53 Y220C (NUGC3 cells), < 750 nM; in the assay on H1299 p53 R273H (setting [5]), ≥ 10000 nM. For the same compound, the half-maximal activity concentration (AC50) on p53 Y220C (AC50) is < 750 nM. The maximal effect (Emax) at p53 Y220C (Emax) fell in the range of 80 to 90%. The ΔTm at 10 µM in assay [2] (setting [4]) was ≥ 10 °C.

Regarding `COc1cc(S(C)(=O)=O)ccc1NCC#Cc1nc2c(NC3CC4(COC4)C3)cccn2c1CC(F)(F)F` [Example 115, 2-{3-[(4-methanesulfonyl-2-methoxyphenyl)amino]prop-1-yn-1-yl}-N-{2-oxaspiro[3.3]heptan-6-yl}-3-(2,2,2-trifluoroethyl)imidazo[1,2-a]pyridin-8-amine], the dissociation constant (Kd) in assay [1] (SPR, kinetic KD, p53 Y220C) was in the range of 100 to 1000 nM. Moreover, the IC50 is > 3000 nM with H1299 p53 Y220C (H1299 p53 Y220C), > 3000 nM in the assay on NUGC3 p53 Y220C (NUGC3 p53 Y220C) and ≥ 10000 nM in the assay on H1299 p53 R273H (H1299 p53 R273H). The maximal response (Emax) at p53 Y220C (setting [6]) is < 70%. Besides, the AC50 on p53 Y220C is > 3000 nM. In addition, the ΔTm at 100 µM in assay [2] (thermal shift) was in the range of 5 to 10 °C.

Take `CNC(=O)c1ccc(OC)c(NCC#Cc2nc3c(N[C@@H]4CCNC[C@@H]4F)cccn3c2SC(F)(F)F)n1` [Example 217]: the Kd in assay [1] was < 10 nM. Further, the half-maximal inhibitory concentration (IC50) in the assay with H1299 p53 Y220C (H1299 p53 Y220C) is < 750 nM; in the assay with NUGC3 p53 Y220C (NUGC3 p53 Y220C), < 750 nM; with H1299 p53 R273H (H1299 p53 R273H) it was 5000 to 8000 nM. Moreover, the Emax on p53 Y220C (setting [6]) lay within 70 to 80%. Also, on p53 Y220C, the AC50 was < 750 nM. In addition, the ΔTm at 10 µM in assay [2] (setting [7]) is ≥ 10 °C. Besides, the ΔTm at 100 µM in assay [2] (thermal shift) was ≥ 10 °C.

For `COc1ccc(C(=O)N2CCC2)cc1NCC#Cc1nc2c(N[C@@H]3CCN(C)C[C@@H]3F)cccn2c1SC(F)(F)F` [Example 144], the Kd in assay [1] was < 10 nM. In addition, the IC50 is 1500 to 3000 nM in the assay on H1299 p53 Y220C (H1299 p53 Y220C), 750 to 1500 nM with NUGC3 p53 Y220C (NUGC3 p53 Y220C) and ≥ 10000 nM with H1299 p53 R273H (H1299 p53 R273H). In addition, the maximal effect (Emax) on p53 Y220C (setting [6]) is 80 to 90%. Also, the concentration at half-maximal activity (AC50) on p53 Y220C was 750 to 1500 nM. For the same compound, in assay [2] (setting [7]), the ΔTm at 10 µM fell in the range of 5 to 10 °C. The ΔTm at 100 µM in assay [2] (thermal shift) is ≥ 10 °C.

As for `COc1cc(S(C)(=O)=O)ccc1NCC#Cc1nc2c(NC3CCN(C)CC3)cccn2c1CC(F)(F)F` [Example 2, N-(2-{3-[(4-methanesulfonyl-2-methoxyphenyl)amino]prop-1-yn-1-yl}-3-(2,2,2-trifluoroethyl)imidazo[1,2-a]pyridin-8-yl)-1-methylpiperidin-4-amine], the Kd in assay [1] (SPR, kinetic KD, p53 Y220C) is 10 to 100 nM. The IC50 in the assay with H1299 p53 Y220C (H1299 p53 Y220C) is 1500 to 3000 nM; with NUGC3 p53 Y220C (NUGC3 p53 Y220C) it was 1500 to 3000 nM; in the assay on H1299 p53 R273H (H1299 p53 R273H), 5000 to 8000 nM. At p53 Y220C (setting [6]), the Emax was < 70%. Besides, at p53 Y220C, the AC50 is > 3000 nM. Further, the ΔTm at 100 µM in assay [2] (thermal shift) was ≥ 10 °C.

For `CNC(=O)c1ccc(NCC#Cc2cc3c(N[C@@H]4CCNC[C@@H]4F)nccn3c2SC(F)(F)F)c(OC)c1` [Example 295], the Kd in assay [1] (SPR, p53 Y220C) is < 10 nM. Besides, the IC50 in the assay with H1299 p53 Y220C (setting [3]) was < 750 nM; with NUGC3 p53 Y220C (NUGC3 cells) it was < 750 nM; with H1299 p53 R273H (setting [5]), 8000 to 10000 nM. The concentration at half-maximal activity (AC50) on p53 Y220C (AC50) was < 750 nM. The Emax at p53 Y220C (Emax) is > 90%. Moreover, the ΔTm at 10 µM in assay [2] (setting [4]) was ≥ 10 °C.
